Reference: ChEMBL document CHEMBL1240428, “Conventional and microwave assisted synthesis of some new N-[(4-oxo-2-substituted aryl -1, 3-thiazolidine)-acetamidyl]-5-nitroindazoles and its antimicrobial activity” (2010)
Values after ≈ are worked out from the molar mass of the structure shown.

What was measured:
[1] = tested on: Escherichia coli; test: Antibacterial activity against Escherichia coli at 50 ug/mL; type: functional; details: read-out: IZ
[2] = tested on: Escherichia coli; test: Antibacterial activity against Escherichia coli at 100 ug/mL; type: functional; details: read-out: IZ
[3] = tested on: Bacillus subtilis; test: Antibacterial activity against Bacillus subtilis at 50 ug/mL; type: functional; details: read-out: IZ
[4] = tested on: Bacillus subtilis; test: Antibacterial activity against Bacillus subtilis at 100 ug/mL; type: functional; details: read-out: IZ
[5] = tested on: Aspergillus flavus; test: Antifungal activity against Aspergillus flavus at 50 ug/mL; type: functional; details: read-out: IZ
[6] = tested on: Aspergillus flavus; test: Antifungal activity against Aspergillus flavus at 100 ug/mL; type: functional; details: read-out: IZ
[7] = tested on: Penicillium citrinum; test: Antifungal activity against Penicillium citrinum at 50 ug/mL; type: functional; details: read-out: IZ
[8] = tested on: Penicillium citrinum; test: Antifungal activity against Penicillium citrinum at 100 ug/mL; type: functional; details: read-out: IZ
[9] = tested on: Fusarium oxysporum; test: Antifungal activity against Fusarium oxysporum at 50 ug/mL; type: functional; details: read-out: IZ
[10] = tested on: Fusarium oxysporum; test: Antifungal activity against Fusarium oxysporum at 100 ug/mL; type: functional; details: read-out: IZ
[11] = tested on: Escherichia coli; test: Antibacterial activity against Escherichia coli; type: functional
[12] = tested on: Bacillus subtilis; test: Antibacterial activity against Bacillus subtilis; type: functional
[13] = tested on: Aspergillus flavus; test: Antifungal activity against Aspergillus flavus; type: functional
[14] = tested on: Penicillium citrinum; test: Antifungal activity against Penicillium citrinum; type: functional
[15] = tested on: Fusarium oxysporum; test: Antifungal activity against Fusarium oxysporum; type: functional
[16] = tested on: Salmonella typhi; test: Antibacterial activity against Salmonella typhi
[17] = tested on: Salmonella typhi; test: Antibacterial activity against Salmonella typhi at 50 ug/mL; details: read-out: IZ
[18] = tested on: Salmonella typhi; test: Antibacterial activity against Salmonella typhi at 100 ug/mL; details: read-out: IZ

Structure (SMILES) | zone of inhibition at 50 µg/mL [1] [mm] | zone of inhibition at 100 µg/mL [2] [mm] | zone of inhibition at 50 µg/mL [3] [mm] | zone of inhibition at 100 µg/mL [4] [mm] | zone of inhibition at 50 µg/mL [5] [mm] | zone of inhibition at 100 µg/mL [6] [mm] | zone of inhibition at 50 µg/mL [7] [mm] | zone of inhibition at 100 µg/mL [8] [mm] | zone of inhibition at 50 µg/mL [9] [mm] | zone of inhibition at 100 µg/mL [10] [mm] | MIC [11] [µg/mL] | MIC [12] [µg/mL] | MIC [13] [µg/mL] | MIC [14] [µg/mL] | MIC [15] [µg/mL] | MIC [16] [µg/mL] | zone of inhibition at 50 µg/mL [17] [mm] | zone of inhibition at 100 µg/mL [18] [mm]
CCOC(=O)Cn1ncc2cc([N+](=O)[O-])ccc21 | 5 | 8 | 3 | 5 | 5.8 | 8 | 4 | 6 | 6.5 | 9 | 35 (≈ 140 µM) | 45 (≈ 181 µM) | 34 (≈ 136 µM) | 40 (≈ 160 µM) | 30 (≈ 120 µM) | 38 (≈ 152 µM) | 4 | 7
NNC(=O)Cn1ncc2cc([N+](=O)[O-])ccc21 | 7 | 10 | 5 | 7 | 7 | 10 | 6 | 8.9 | 8.3 | 10.5 | 32 (≈ 136 µM) | 43 (≈ 183 µM) | 32 (≈ 136 µM) | 38 (≈ 162 µM) | 28 (≈ 119 µM) | 36 (≈ 153 µM) | 6 | 8
O=C(Cn1ncc2cc([N+](=O)[O-])ccc21)N/N=C/c1ccccc1 | 14 | 16.4 | 11.5 | 14.8 | 13.6 | 16.7 | 11.5 | 15.5 | 15 | 17.4 | 22 (≈ 68 µM) | 30 (≈ 92.8 µM) | 20 (≈ 61.9 µM) | 30 (≈ 92.8 µM) | 17 (≈ 52.6 µM) | 22 (≈ 68 µM) | 12.7 | 16
O=C(Cn1ncc2cc([N+](=O)[O-])ccc21)N/N=C/c1ccccc1O | 15.4 | 18 | 12.8 | 16 | 14.9 | 18 | 12 | 16.8 | 16.2 | 18.5 | 20 (≈ 58.9 µM) | 25 (≈ 73.7 µM) | 19 (≈ 56 µM) | 28 (≈ 82.5 µM) | 15 (≈ 44.2 µM) | 20 (≈ 58.9 µM) | 13.8 | 17.5
O=C(Cn1ncc2cc([N+](=O)[O-])ccc21)N/N=C/c1ccccc1Cl | 18.2 | 21 | 16 | 19.4 | 19 | 22 | 15.8 | 20.5 | 20.1 | 22 | 16 (≈ 44.7 µM) | 20 (≈ 55.9 µM) | 17 (≈ 47.5 µM) | 22 (≈ 61.5 µM) | 13 (≈ 36.3 µM) | 17 (≈ 47.5 µM) | 16.9 | 21
O=C(Cn1ncc2cc([N+](=O)[O-])ccc21)N/N=C/c1ccc(Cl)cc1 | 19 | 21.9 | 16.8 | 20.1 | 20 | 22.7 | 16.8 | 21.4 | 20.8 | 22.9 | 17 (≈ 47.5 µM) | 18 (≈ 50.3 µM) | 17 (≈ 47.5 µM) | 20 (≈ 55.9 µM) | 13 (≈ 36.3 µM) | 17 (≈ 47.5 µM) | 18 | 21.7
O=C(Cn1ncc2cc([N+](=O)[O-])ccc21)N/N=C/c1ccccc1Br | 16.8 | 19.4 | 14 | 17.4 | 16.4 | 19.4 | 13.3 | 18 | 17.8 | 19.8 | 18 (≈ 44.8 µM) | 22 (≈ 54.7 µM) | 19 (≈ 47.2 µM) | 28 (≈ 69.6 µM) | 15 (≈ 37.3 µM) | 18 (≈ 44.8 µM) | 15 | 19
O=C(Cn1ncc2cc([N+](=O)[O-])ccc21)N/N=C/c1cccc(Br)c1 | 17.4 | 20.1 | 15.1 | 18.3 | 17.8 | 20.9 | 14.5 | 19 | 18.8 | 20.7 | 18 (≈ 44.8 µM) | 21 (≈ 52.2 µM) | 18 (≈ 44.8 µM) | 25 (≈ 62.2 µM) | 15 (≈ 37.3 µM) | 18 (≈ 44.8 µM) | 15.9 | 20
O=C(Cn1ncc2cc([N+](=O)[O-])ccc21)N/N=C/c1ccccc1[N+](=O)[O-] | 20 | 22.8 | 18 | 21 | 21.4 | 24 | 18 | 22.7 | 22 | 24.2 | 15 (≈ 40.7 µM) | 17 (≈ 46.2 µM) | 14 (≈ 38 µM) | 20 (≈ 54.3 µM) | 11 (≈ 29.9 µM) | 15 (≈ 40.7 µM) | 19 | 22.8
O=C(Cn1ncc2cc([N+](=O)[O-])ccc21)N/N=C/c1cccc([N+](=O)[O-])c1 | 20.9 | 23.5 | 18.7 | 21.9 | 22.5 | 24.9 | 19 | 23.8 | 22.9 | 25.4 | 15 (≈ 40.7 µM) | 16 (≈ 43.4 µM) | 13 (≈ 35.3 µM) | 18 (≈ 48.9 µM) | 11 (≈ 29.9 µM) | 15 (≈ 40.7 µM) | 20 | 23.6
COc1ccccc1/C=N/NC(=O)Cn1ncc2cc([N+](=O)[O-])ccc21 | 11.5 | 14 | 9 | 12.8 | 11 | 14 | 9.1 | 12.8 | 12.6 | 15.2 | 27 (≈ 76.4 µM) | 38 (≈ 108 µM) | 23 (≈ 65.1 µM) | 35 (≈ 99.1 µM) | 20 (≈ 56.6 µM) | 30 (≈ 84.9 µM) | 9.8 | 13.5
COc1ccc(/C=N/NC(=O)Cn2ncc3cc([N+](=O)[O-])ccc32)cc1 | 12.6 | 15 | 10 | 13.9 | 12.2 | 15.1 | 10 | 14 | 13.9 | 16.2 | 25 (≈ 70.8 µM) | 38 (≈ 108 µM) | 22 (≈ 62.3 µM) | 32 (≈ 90.6 µM) | 18 (≈ 50.9 µM) | 25 (≈ 70.8 µM) | 11 | 14.8
Cc1ccc(/C=N/NC(=O)Cn2ncc3cc([N+](=O)[O-])ccc32)cc1 | 9 | 11 | 6 | 9 | 8 | 11 | 7.1 | 10 | 10.8 | 12.6 | 31 (≈ 91.9 µM) | 42 (≈ 125 µM) | 30 (≈ 88.9 µM) | 38 (≈ 113 µM) | 25 (≈ 74.1 µM) | 34 (≈ 101 µM) | 7 | 10
COC1=CC(=O)C[C@@H](C)[C@]12Oc1c(Cl)c(OC)cc(OC)c1C2=O [GRISEOFULVIN] |  |  |  |  | 27 | 30 | 25 | 28 | 28 | 32 |  |  | 9 (≈ 25.5 µM) | 11 (≈ 31.2 µM) | 6 (≈ 17 µM) |  |  | 
CN[C@@H]1[C@H](O[C@H]2[C@H](O[C@H]3[C@H](O)[C@@H](O)[C@H](N=C(N)N)[C@@H](O)[C@@H]3N=C(N)N)O[C@@H](C)[C@]2(O)C=O)O[C@@H](CO)[C@H](O)[C@H]1O [STREPTOMYCIN] | 26 | 30 | 23 | 27 |  |  |  |  |  |  | 8 (≈ 13.8 µM) | 12 (≈ 20.6 µM) |  |  |  | 10 (≈ 17.2 µM) | 25 | 28
